The text below walks through data of PMC2765124 (Drug and alcohol dependence, 2009).

“Also recorded” adds a separate entry of the source.

For series [1], the system named is acetic acid-induced abdominal stretching in male ICR mice. Kind of series: acetic acid stretching test. Conditions: for antinociceptive effect given alone (abdominal stretching): 1 h before acetic acid; for effect on abdominal stretching given alone: 3 mg/kg i.p.; for blockade of the antinociceptive effects of Δ9-THC: antagonist 3 mg/kg i.p. 10 min before Δ9-THC 3 mg/kg s.c.; for blockade of the antinociceptive effects of Δ9-THC by THCV: THCV 50 mg/kg s.c. with Δ9-THC 3.0 mg/kg s.c. It counts as in vivo, mouse.

In series [2] the test system is locomotor activity of male ICR mice. Kind of series: spontaneous locomotor activity. It counts as in vivo, mouse. As to conditions: for % Time Immobile / Total Distance Traveled: 60 min before, 20 min, mean ± SEM.
Another series concerns the target CB1 receptor (Rattus norvegicus, UniProt P20272). Kind of series: cannabinoid receptor binding, displacement of [3H]-CP-55,940 from whole brain.

CB1 receptor, sequence (P20272 whole entry): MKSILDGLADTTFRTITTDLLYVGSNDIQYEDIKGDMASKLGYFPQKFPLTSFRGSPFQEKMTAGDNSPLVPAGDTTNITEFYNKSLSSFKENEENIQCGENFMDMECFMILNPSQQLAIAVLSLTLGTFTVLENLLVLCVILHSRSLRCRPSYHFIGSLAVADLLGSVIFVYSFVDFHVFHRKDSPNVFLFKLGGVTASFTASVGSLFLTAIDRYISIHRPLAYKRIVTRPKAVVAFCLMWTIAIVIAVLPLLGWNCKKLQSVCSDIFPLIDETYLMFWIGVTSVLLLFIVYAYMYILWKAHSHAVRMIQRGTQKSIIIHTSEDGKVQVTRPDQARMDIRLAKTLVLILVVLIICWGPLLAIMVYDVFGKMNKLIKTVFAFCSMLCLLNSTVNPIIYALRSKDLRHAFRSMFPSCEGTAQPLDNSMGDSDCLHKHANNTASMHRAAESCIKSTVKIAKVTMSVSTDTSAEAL

For `CCCCCc1cc(O)c2c(c1)OC(C)(CCC=C(C)C)C=C2` (centres unmarked) [CBC, cannabichromene], the “antinociceptive effect given alone (abdominal stretching)” value (“antinociceptive effect given alone” below) in series [1] (high doses, s.c.) is “did not produce antinociceptive effects”.

On to `C=C(C)[C@@H]1CCC(C)=C[C@H]1c1c(O)cc(CCCCC)cc1O` [CBD, cannabidiol], for which, in series [1] (high doses, s.c.), the “antinociceptive effect given alone” value is on record as “did not produce antinociceptive effects”.

Take `Cc1c(C(=O)NN2CCCCC2)nn(-c2ccc(Cl)cc2Cl)c1-c1ccc(Cl)cc1` [rimonabant]: in series [1], the “effect on abdominal stretching given alone” value is “did not significantly affect abdominal stretching behavior; also recorded: Neither” and the “blockade of the antinociceptive effects of Δ9-THC” value was “blocked the antinociceptive effects”. For the same compound, the “blockade of the antinociceptive effects of CBN” value in series [1] (antagonist 3 mg/kg i.p. 10 min before CBN 50 mg/kg s.c.) is “blocked by rimonabant; also recorded: significantly blocked the antinociceptive effects”. Further, the “blockade of the antinociceptive effects of Δ9-THC” value in series [1] (listed as Rimonabant) is “significantly blocked”.

For `CCCc1cc(O)c2c(c1)OC(C)(C)[C@@H]1CC=C(C)C[C@@H]21` [THCV, Δ^8-tetrahydrocannabivarin], the “antinociceptive effect given alone” value in series [1] (50 mg/kg s.c.) is reported as “had no affect on the frequency of stretching behavior; also recorded: failed to elicit antinociceptive effects; also recorded: had no effects on its own”. Also, the “blockade of the antinociceptive effects of Δ9-THC by THCV” value is “blocked the antinociceptive effects of Δ^9-THC” in series [1] and “significantly antagonized the antinociceptive effects” in series [1] (listed as THC-V).

By ED50 is commonly meant the midpoint of the dose-response relation. For the compound `CCCCCc1cc(O)c2c(c1)OC(C)(C)[C@@H]1CCC(C)=C[C@@H]21` [Δ^9-THC, Δ^9-tetrahydrocannabinol], the ED50 in series [1] (Mus musculus, read-out: ED50, suppression of abdominal stretching) is 1.1 mg/kg. In addition, the “minimal (required) dose that produced antinociception” value in series [1] (s.c.) was found to be 1 mg/kg. Also, the “% Time Immobile” value in series [2] (1.0 mg/kg s.c.) came out at 11.2 ± 2.2%; in series [2] (3.0 mg/kg s.c.) it was 21.5 ± 5.0%; in series [2] (10.0 mg/kg s.c.) it was 37.6 ± 9.2%; in series [2] (50.0 mg/kg s.c.) it was 49.0 ± 6.8 %. In addition, the “Total Distance Traveled” value came out at 41.79 ± 2.63 m in series [2] (1.0 mg/kg s.c.), 43.59 ± 4.70 m in series [2] (3.0 mg/kg s.c.), 45.86 ± 7.76 m in series [2] (10.0 mg/kg s.c.) and 35.34 ± 3.61 m in series [2] (50.0 mg/kg s.c.). The “effect on locomotor activity” value in series [2] (3 mg/kg s.c., 60 min pretreatment, compared to vehicle) is reported as “did not significantly interfere with locomotor activity”. In addition, in series [2] (doses less than 50 mg/kg s.c.), the effect on mobility result is “did not impair mobility”.

On to `CCCCCc1cc(O)c2c(c1)OC(C)(C)c1ccc(C)cc1-2` [CBN, cannabinol], for which the “antinociceptive effect given alone” value is listed as “not at 20 mg/kg” in series [1] (20 mg/kg s.c.) and “significant antinociceptive effects; also recorded: significantly suppressed the stretching response” in series [1] (50 mg/kg s.c.). Further, the “minimal (required) dose that produced antinociception” value in series [1] (s.c.) is given as 50 mg/kg. The “effect on locomotor activity” value in series [2] (50 mg/kg s.c., 60 min before recording) is listed as “failed to inhibit locomotor activity; also recorded: did not affect mobility”. Further, the “% Time Immobile” value in series [2] (50.0 mg/kg s.c.) turned out to be 17.6 ± 2.9%. Also, in series [2] (50.0 mg/kg s.c.), the “Total Distance Traveled” value worked out at 39.02 ± 7.75 m. The “affinity at the CB1 receptor, fold lower than the affinity of Δ9-THC” value on CB1 receptor was 2–3 fold.

Regarding SR144528, in series [1], the “effect on abdominal stretching given alone” value was “did not significantly affect abdominal stretching behavior; also recorded: Neither”.
